According to patent publication US12457954B2, “Sorghum plants having a mutant polynucleotide encoding the large subunit of mutated acetohydroxyacid synthase protein and increased resistance to herbicides” (Advanta Holdings BV, priority 2012, dated 2025):

How the values were obtained:
Type in all cases: in vivo, Sorghum bicolor
[1] = tested on: endogamic Sorghum line 80237; experiment: Field spraying with imidazolinone herbicides, dry matter of aerial tissues, wild-type line; details: 10 days after spraying, mean of 3 experiments
Description: (§1) Subsequently, the effect to herbicide spraying on mutant imidazolinone-resistant plants ADV-IMI-R (original mutation) was compared to the response of endogamic Sorghum line 80237 (Advanta proprietary elite line). To that end, plants were treated on the field with three herbicides belonging to the imidazolinone family: imazethapyr, imazapir, and imazapic. Four different rates were assayed: 1×, 2×, 3×, and 4× for each of the herbicides.
(§2) Ten days after spraying, all plants were assayed for dry matter (DM) in aerial tissues.
(§3) The response of the ADV-IMI-R mutant of the invention was compared to that of endogamic line 80237. […] The disclosed values are the average of three experiments.
(§4) Sorghum line 80237 (Advanta's proprietary elite line) and imidazolinone-resistant ADV-IMI-R mutant of the present invention (original mutation) were sprayed on the field with three herbicides from the group of imidazolinones: imazethapyr, imazapyr, and imazapic. Four different rates were assayed for each of the herbicides: 1×, 2×, 3×, and 4× (being 1× the recommended application rate) (see Table 1 above):
(§5) Field experiments were carried out in Venado Tuerto, and planting took place on Dec. 1, 2010. The herbicide was sprayed 20 days after emergence (stage V6). All treatments were compared to their respective untreated controls. The experimental design consisted of plots divided into 3 replicates (main plot: treatment with herbicide; sub-plots: line).
(§6) Ten days after spraying, all plants were assayed for dry matter (DM) in aerial tissues. Herbicide response was assessed as a DM percentage in aerial tissue of the respective untreated control.
(§7) Thus, the line sensitive to herbicides i for each rate j was expressed as:
(§8) [formula] • DMij % Control is the mean value of 3 experiments for each treatment from each line.

[2] = tested on: ADV-IMI-R mutant Sorghum line; experiment: Field spraying with imidazolinone herbicides, dry matter of aerial tissues, resistant mutant; details: for DM % Control: ADV-IMI-R, 10 days after spraying, mean of 3 experiments; for Response of ADV-IMI-R mutant to herbicide: field spraying, even at a rate of 4×
Description: as §1, §2, §3, §4, §5, §6, §7, §8

[3] = tested on: ADV-IMI-R × 90523 F2 progeny; experiment: Phenotypic rating of segregating F2 population after spraying with imazethapyr; details: rate 3X
Description: Inheritance of resistance to imidazolinones, for example imazethapyr, was assessed in a segregating F2 Sorghum population generated by crossing an imazethapyr susceptible line with the ADV-IMI-R mutant. The F2 plants thus obtained were sprayed with imazethapyr (Pivot®, BASF) at a rate of 3×, 20 days in stage V6 after emergence and phenotypic symptoms were assessed 10 days after treatment.
The correlation between resistance phenotypes and the number of mutant alleles was analyzed using the SNP-SbAHAS marker. To that end, chlorosis and death phenotypes of individual plants from the F2 progeny (ADV-IMI-R×90523) were studied after spraying with imazethapyr. Concomitantly, the genotype of the SNP-SbAHAS marker was studied. The correlation between the molecular marker SNP-SbAHAS and resistance to imazethapyr (measured as a rating of phenotypes) was determined using the Chi-square Independence test.
A targeted crossing was carried out between Sorghum line 90523 (Advanta proprietary elite line, susceptible to imidazolinones) and the imidazolinone-resistant ADV-IMI-R mutant (VT09-9754-48-6-BK selection). The resulting F1 plants were auto-pollinated and F2 seeds were harvested. The F2 seeds were planted in the field in Venado Tuerto, in October 2010. The F2 plants (177 plants) were sprayed with imazethapyr (Pivot®, BASF) at a rate of 3× (where 1× is the rate recommended by the manufacturer for commercial use which is equivalent to 100 ml a.i./ha). Before spraying, leaf tissue from each of the 177 F2 plants from both ADV-IMI-R mutant (VT09-9754-48-6-BK selection) and wild-type line 90523 were collected to isolate genomic DNA, which was resuspended in water at a final concentration of 100 ng/μl for use in genotypic analysis.
Herbicide was sprayed 20 days after emergence (stage V6). The plants were assessed ten days after spraying, and the herbicidal effect was classified into three categories by visually assessed symptoms according to the following phenotypic scoring: • 1=no damage • 2=chlorotic • 3=death
Individual F2 progeny plants obtained by a ADV-IMI-R×90523 crossing were phenotypically classified (no damage, chlorosis and death) after spraying with imazethapyr (using the method of Example 4) and then genotypically classified using the molecular marker SNP-SbAHAS which is specific of the induced mutation in AHAS (using the method described in Example 5).

[4] = 10 days after treatment, 177 F2 plants

Structure (SMILES) | DM % Control ([1]; rate 1X) | DM % Control ([1]; rate 2X) | DM % Control ([1]; rate 3X) | DM % Control ([1]; rate 4X) | DM % Control ([2]; rate 1X) | DM % Control ([2]; rate 2X) | DM % Control ([2]; rate 3X) | DM % Control ([2]; rate 4X) | Response of ADV-IMI-R mutant to herbicide [2] | Amount of F2 progeny, phenotype Chlorotic (rating 2) [3, 4] | Amount of F2 progeny, phenotype Death (rating 3) [3, 4] | Amount of F2 progeny, phenotype No damage (rating 1) [3, 4] | Amount of F2 individuals, genotype A/G, phenotype Chlorotic ([3]; heterozygous) | Amount of F2 individuals, genotype A/G, phenotype No damage ([3]; heterozygous) | Amount of F2 individuals, genotype A/A, phenotype Chlorotic ([3]; homozygous AHAS mutant) | Amount of F2 individuals, genotype A/A, phenotype No damage ([3]; homozygous AHAS mutant) | Amount of F2 individuals, genotype G/G, phenotype Death ([3]; wild-type homozygous)
Cc1cnc(C2=NC(=O)C(C)(C(C)C)N2)c(C(=O)O)c1 (centres unmarked) [Imazapic] | 22% | 13% | 15% | 28% | 161% | 123% | 244% | 272% | resistant | – | – | – | – | – | – | – | –
CCc1cnc(C2=NC(C)(C(C)C)C(=O)N2)c(C(=O)O)c1 (centres unmarked) [Imazethapyr] | 17% | 12% | 14% | 23% | 162% | 175% | 263% | 273% | resistant | 84 | 43 | 50 | 83 | 13 | 1 | 37 | 43
CC(C)C1(C)N=C(c2ncccc2C(=O)O)NC1=O (centres unmarked) [Imazapyr] | 14% | 21% | 14% | 19% | 139% | 140% | 235% | 191% | resistant | – | – | – | – | – | – | – | –
